The results in this text go back to ChEMBL document CHEMBL1145487, “Evidence and possible consequences of the phosphorylation of nucleoside reverse transcriptase inhibitors in human red blood cells” (Antimicrob Agents Chemother, 2007).

Data set [1] relates to PBMC. Nature of the data set: Drug level in RBC lysed human PBMC assessed as concentration of tenofovir diphosphate after 9.5 hrs. The format is ADME, cell-based.
Data set [2] has as its system PBMC. Nature of the data set: Ratio of drug level in non-lysed human PBMC to RBC lysed human PBMC assessed as concentration of tenofovir diphosphate after 2 hrs. The format is ADME, cell-based.
In data set [3] the test system is PBMC. Nature of the data set: Drug level in human PBMC assessed as concentration of tenofovir diphosphate per 10^6 cells after 11.9 hrs. The class given is ADME, cell-based.
Data set [4] relates to PBMC. Put plainly: Drug level in human PBMC assessed as concentration of tenofovir diphosphate per 10^6 cells after 13.9 hrs. The format is ADME, cell-based.
The subject of data set [5] is PBMC. Put plainly: Drug level in non-lysed human PBMC assessed as concentration of tenofovir diphosphate after 9.5 hrs. The class given is ADME, cell-based.
Data set [6] in a line: Ratio of drug level in human RBC to human PBMC assessed as concentration of Lamivudine triphosphate after 0.8 hrs. The format is ADME. To be noted: erythrocytes.
The subject of data set [7] is PBMC. Put plainly: Ratio of drug level in non-lysed human PBMC to RBC lysed human PBMC assessed as concentration of tenofovir diphosphate after 9.5 hrs. The format is ADME, cell-based.
A short description of data set [8]: Drug level in human RBC assessed as concentration of tenofovir diphosphate per 10^6 cells after 13.5 hrs. The class given is ADME, cell-based. Particulars: erythrocyte.
Data set [9] in a line: Ratio of drug level in human RBC to human PBMC assessed as concentration of Lamivudine triphosphate after 11.9 hrs. To be noted: erythrocytes. The class given is ADME.
The test system of data set [10] is PBMC. Nature of the data set: Drug level in human PBMC assessed as concentration of tenofovir diphosphate per 10^6 cells after 14.3 hrs. The format is ADME, cell-based.
Data set [11] in a line: Drug level in human RBC assessed as concentration of tenofovir diphosphate per 10^6 cells after 13.3 hrs. To be noted: erythrocyte. The class given is ADME, cell-based.
The subject of data set [12] is PBMC. Nature of the data set: Drug level in non-lysed human PBMC assessed as concentration of tenofovir diphosphate after 2 hrs. The class given is ADME, cell-based.
Data set [13] in a line: Drug level in human RBC assessed as concentration of tenofovir diphosphate per 10^6 cells after 11.9 hrs. The format is ADME, cell-based. Particulars: erythrocyte.
A short description of data set [14]: Drug level in human RBC assessed as concentration of tenofovir diphosphate per 10^6 cells after 14.3 hrs. The class given is ADME, cell-based. To be noted: erythrocyte.
Data set [15] in a line: Ratio of drug level in human RBC to human PBMC assessed as concentration of lamivudin triphosphate after 13.5 hrs. The class given is ADME. Particulars: erythrocytes.
Data set [16] can be described thus: Ratio of drug level in human RBC to human PBMC assessed as concentration of Lamivudine triphosphate after 14.3 hrs. To be noted: erythrocytes. The class given is ADME.
In data set [17] the test system is PBMC. Put plainly: Drug level in human PBMC assessed as concentration of tenofovir diphosphate per 10^6 cells after 0.8 hrs. The format is ADME, cell-based.
Data set [18] relates to PBMC. Put plainly: Drug level in human PBMC assessed as concentration of tenofovir diphosphate per 10^6 cells after 13.5 hrs. The class given is ADME, cell-based.
Data set [19] can be described thus: Drug level in human RBC assessed as concentration of tenofovir diphosphate per 10^6 cells after 0.8 hrs. The class given is ADME, cell-based. Particulars: erythrocyte.
The subject of data set [20] is PBMC. Put plainly: Drug level in RBC lysed human PBMC assessed as concentration of tenofovir diphosphate after 2 hrs. The class given is ADME, cell-based.
Data set [21] can be described thus: Ratio of drug level in human RBC to human PBMC assessed as concentration of Lamivudine triphosphate after 13.3 hrs. The class given is ADME. Particulars: erythrocytes.
Data set [22] can be described thus: Ratio of drug level in human RBC to human PBMC assessed as concentration of Lamivudine triphosphate. To be noted: erythrocytes. The class given is ADME.
Data set [23] can be described thus: Ratio of drug level in human RBC to human PBMC assessed as concentration of Lamivudine triphosphate after 0.3 hrs. The format is ADME. To be noted: erythrocytes.
Data set [24] has as its system PBMC. Put plainly: Drug level in human PBMC assessed as concentration of Lamivudine triphosphate per 10^6 cells after 0.3 hrs. The class given is ADME, cell-based.
In data set [25] the test system is PBMC. Put plainly: Drug level in human PBMC assessed as concentration of Lamivudine triphosphate per 10^6 cells. The format is ADME, cell-based.
Data set [26] can be described thus: Drug level in human RBC assessed as concentration of Lamivudine triphosphate per 10^6 cells. The class given is ADME, cell-based. To be noted: erythrocyte.
Data set [27] in a line: Drug level in human RBC assessed as concentration of Lamivudine triphosphate per 10^6 cells after 0.3 hrs. The format is ADME, cell-based. Particulars: erythrocyte.

As to `CC(C)OC(=O)OCOP(=O)(CO[C@H](C)Cn1cnc2c(N)ncnc21)OCOC(=O)OC(C)C.O=C(O)/C=C/C(=O)O` [TENOFOVIR DISOPROXIL FUMARATE], the Drug uptake in the data set on PBMC [1] is reported as 182.5 fmol; with PBMC [3] it was 131 fmol; in the data set with PBMC [4], 148 fmol; in the data set on PBMC [5] it was 1287 fmol; in data set [8], 245 fmol; with PBMC [10] it was 95.5 fmol. Also, the Drug uptake in data set [11] is 165 fmol; with PBMC [12] it was 302.6 fmol; in data set [13] it was 143 fmol; in data set [14], 73.3 fmol; with PBMC [17], 226 fmol; with PBMC [18] it was 202 fmol. In addition, the Drug uptake in [19] turned out to be 443 fmol; with PBMC [20] it was 376.6 fmol. For the same compound, the Ratio is 0.8 in the data set with PBMC [2]; 2 in data set [6]; 7.05 with PBMC [7]; 1.1 in data set [9]; 1.2 in [15]; 0.8 in data set [16]. Moreover, in data set [21], the Ratio amounted to 1.1.
With `Nc1ccn([C@@H]2CS[C@H](CO)O2)c(=O)n1` (single isomer, unassigned) [LAMIVUDINE], the Ratio is reported as 0.004 in data set [22] and 0.009 in [23]. Moreover, the Drug uptake with PBMC [24] is reported as 10.5 pmol; in the data set on PBMC [25], 11.1 pmol; in data set [26], 0.04 pmol; in [27] it was 0.09 pmol.
